Reference: publication PMC5218480 (PLoS ONE, 2017)

Tested on: MV-4-11 cells
Experiment: Gene expression microarray analysis (Affymetrix PrimeView) and GSEA
Format: cell-based, human
Set-up: RFU PODN (11730768_x_at) / Fold change /veh PODN (11730768_x_at) / RFU LINC00158 (11744669_a_at) / Fold change /veh LINC00158 (11744669_a_at) / RFU DUSP10 (11751237_a_at) / Fold change /veh DUSP10 (11751237_a_at) / RFU ID3 (11757404_x_at) / Fold change /veh ID3 (11757404_x_at) / RFU PLEKHG5 (11737974_s_at) / Fold change /veh PLEKHG5 (11737974_s_at) / RFU LRRC4B (11730491_at) / Fold change /veh LRRC4B (11730491_at) / RFU GIMAP4 (11747438_a_at) / Fold change /veh GIMAP4 (11747438_a_at) / RFU KRT8 (11758183_x_at) / Fold change /veh KRT8 (11758183_x_at) / RFU CNN1 (11734310_a_at) / Fold change /veh CNN1 (11734310_a_at) / RFU VPS37D (11726825_at) / Fold change /veh VPS37D (11726825_at) / RFU C10orf10 (11716522_x_at) / Fold change /veh C10orf10 (11716522_x_at) / RFU KIR2DL2 /// KIR2DL4 /// KIR2DL5A /// KIR2DL5B /// KIR2DS1 /// KIR2DS2 /// KIR2DS3 /// KIR2DS4 /// KIR3DL3 /// KIR3DL3 /// KIR3DS1 (11738374_at) / Fold change /veh KIR2DL2 /// KIR2DL4 /// KIR2DL5A /// KIR2DL5B /// KIR2DS1 /// KIR2DS2 /// KIR2DS3 /// KIR2DS4 /// KIR3DL3 /// KIR3DL3 /// KIR3DS1 (11738374_at) / RFU C1QL1 (11718748_at) / Fold change /veh C1QL1 (11718748_at) / RFU TMPRSS4 (11747572_a_at) / Fold change /veh TMPRSS4 (11747572_a_at) / RFU HAMP (11756126_x_at) / Fold change /veh HAMP (11756126_x_at) / RFU RNFT2 (11725882_a_at) / Fold change /veh RNFT2 (11725882_a_at) / RFU NR4A2 (11747474_a_at) / Fold change /veh NR4A2 (11747474_a_at) / RFU ABCC12 (11746883_a_at) / Fold change /veh ABCC12 (11746883_a_at) / RFU TMEM136 (11760407_x_at) / Fold change /veh TMEM136 (11760407_x_at) / RFU CLDN22 /// WWC2 (11732394_at) / Fold change /veh CLDN22 /// WWC2 (11732394_at) / RFU HLA-DPB1 (11760878_x_at) / Fold change /veh HLA-DPB1 (11760878_x_at) / RFU SPINT1 (11716480_a_at) / Fold change /veh SPINT1 (11716480_a_at) / RFU GAP43 (11754022_s_at) / Fold change /veh GAP43 (11754022_s_at) / RFU A4GNT (11735810_at) / Fold change /veh A4GNT (11735810_at) / RFU PRB3 (11715151_x_at) / Fold change /veh PRB3 (11715151_x_at) / RFU TUBB4B (11761932_at) / Fold change /veh TUBB4B (11761932_at) / RFU CAPN14 (11732068_a_at) / Fold change /veh CAPN14 (11732068_a_at) / RFU TMCC2 (11721928_a_at) / Fold change /veh TMCC2 (11721928_a_at) / RFU IRGQ (11745062_a_at) / Fold change /veh IRGQ (11745062_a_at) / RFU FAM174B (11720279_a_at) / Fold change /veh FAM174B (11720279_a_at) / RFU TMPRSS4 (11748680_a_at) / Fold change /veh TMPRSS4 (11748680_a_at) / RFU FAM212B (11763350_a_at) / Fold change /veh FAM212B (11763350_a_at) / RFU PLEKHG5 (11743358_a_at) / Fold change /veh PLEKHG5 (11743358_a_at) / RFU ZSCAN30 (11745921_a_at) / Fold change /veh ZSCAN30 (11745921_a_at) / RFU CMKLR1 (11741424_a_at) / Fold change /veh CMKLR1 (11741424_a_at) / RFU LOC101060620 /// MAPK8IP1 (11723275_at) / Fold change /veh LOC101060620 /// MAPK8IP1 (11723275_at) / RFU SPTSSB (11747773_x_at) / Fold change /veh SPTSSB (11747773_x_at) / RFU PRSS12 (11739890_at) / Fold change /veh PRSS12 (11739890_at) / RFU BIN1 (11741810_x_at) / Fold change /veh BIN1 (11741810_x_at) / RFU WNT11 (11732464_a_at) / Fold change /veh WNT11 (11732464_a_at) / RFU C10orf10 (11716521_a_at) / Fold change /veh C10orf10 (11716521_a_at) / RFU C5orf56 (11738089_at) / Fold change /veh C5orf56 (11738089_at) / RFU CYB561 (11721691_x_at) / Fold change /veh CYB561 (11721691_x_at) / RFU ANKRD19P (11752326_a_at) / Fold change /veh ANKRD19P (11752326_a_at) / RFU OR2T12 /// OR2T33 /// OR2T8 (11738714_s_at) / Fold change /veh OR2T12 /// OR2T33 /// OR2T8 (11738714_s_at) / RFU VCAN (11748164_a_at) / Fold change /veh VCAN (11748164_a_at) / RFU JSRP1 (11732532_at) / Fold change /veh JSRP1 (11732532_at) / RFU KRTAP10-11 (11738290_x_at) / Fold change /veh KRTAP10-11 (11738290_x_at) / RFU MYO3A (11730013_a_at) / Fold change /veh MYO3A (11730013_a_at) / RFU EBF3 (11725865_a_at) / Fold change /veh EBF3 (11725865_a_at) / RFU CAMK2N1 (11719241_x_at) / Fold change /veh CAMK2N1 (11719241_x_at) / RFU C5orf56 (11738088_a_at) / Fold change /veh C5orf56 (11738088_a_at) / RFU OLFML3 (11715873_a_at) / Fold change /veh OLFML3 (11715873_a_at) / RFU LOC100653217 /// NTM (11731650_a_at) / Fold change /veh LOC100653217 /// NTM (11731650_a_at) / RFU MAPK11 (11762145_a_at) / Fold change /veh MAPK11 (11762145_a_at) / RFU FIZ1 (11724087_x_at) / Fold change /veh FIZ1 (11724087_x_at) / RFU OASL (11726364_x_at) / Fold change /veh OASL (11726364_x_at) / RFU SOX15 (11748057_x_at) / Fold change /veh SOX15 (11748057_x_at) / RFU CD79A (11719716_a_at) / Fold change /veh CD79A (11719716_a_at) / RFU HIST1H1D (11736915_at) / Fold change /veh HIST1H1D (11736915_at) / RFU CASKIN2 (11723855_a_at) / Fold change /veh CASKIN2 (11723855_a_at) / RFU LOC730098 (11760151_x_at) / Fold change /veh LOC730098 (11760151_x_at) / RFU OR4N2 (11742367_at) / Fold change /veh OR4N2 (11742367_at) / RFU PRRT2 (11749266_a_at) / Fold change /veh PRRT2 (11749266_a_at) / RFU SNX32 (11753110_a_at) / Fold change /veh SNX32 (11753110_a_at) / RFU CDHR5 (11726645_a_at) / Fold change /veh CDHR5 (11726645_a_at) / RFU RCAN1 (11760418_a_at) / Fold change /veh RCAN1 (11760418_a_at) / RFU FAM167A (11723789_a_at) / Fold change /veh FAM167A (11723789_a_at) / RFU FAM26E (11764081_at) / Fold change /veh FAM26E (11764081_at) / RFU ISYNA1 (11749810_s_at) / Fold change /veh ISYNA1 (11749810_s_at) / RFU ACY1 (11761880_at) / Fold change /veh ACY1 (11761880_at) / RFU 11764098_at / Fold change /veh 11764098_at / RFU SAMD14 (11745864_x_at) / Fold change /veh SAMD14 (11745864_x_at) / RFU NPB (11741838_a_at) / Fold change /veh NPB (11741838_a_at) / RFU TMPRSS6 (11731388_a_at) / Fold change /veh TMPRSS6 (11731388_a_at) / RFU KRTAP10-2 (11738614_at) / Fold change /veh KRTAP10-2 (11738614_at) / RFU ARHGAP8 /// PRR5-ARHGAP8 (11727945_x_at) / Fold change /veh ARHGAP8 /// PRR5-ARHGAP8 (11727945_x_at) / RFU KRTAP5-7 /// NADSYN1 (11734609_at) / Fold change /veh KRTAP5-7 /// NADSYN1 (11734609_at) / RFU RASL12 (11751679_a_at) / Fold change /veh RASL12 (11751679_a_at) / RFU CDKN2B (11736163_a_at) / Fold change /veh CDKN2B (11736163_a_at) / RFU PRF1 (11729649_at) / Fold change /veh PRF1 (11729649_at) / RFU, ZNF638 /// ZNF638-IT1 / Fold change vs veh, ZNF638 /// ZNF638-IT1 / RFU, PANK3 / Fold change vs veh, PANK3 / RFU, SH3YL1 / Fold change vs veh, SH3YL1 / RFU, ZEB2 / Fold change vs veh, ZEB2 / RFU, NRIP1 / Fold change vs veh, NRIP1 / RFU, PTTG1IP / Fold change vs veh, PTTG1IP / RFU, CAPN2 / Fold change vs veh, CAPN2 / RFU, MED14 / Fold change vs veh, MED14 / RFU, SNORA58 / Fold change vs veh, SNORA58 / RFU, C1orf63 / Fold change vs veh, C1orf63 / RFU, LRRFIP1 / Fold change vs veh, LRRFIP1 / RFU, NDUFAF7 / Fold change vs veh, NDUFAF7 / RFU, SLC12A2 / Fold change vs veh, SLC12A2 / RFU, IBTK / Fold change vs veh, IBTK / RFU, ESF1 / Fold change vs veh, ESF1 / Fold change vs veh, TMEM50B / RFU, TAOK1 / Fold change vs veh, TAOK1 / RFU, ACBD3 / Fold change vs veh, ACBD3 / RFU, TMA16 / Fold change vs veh, TMA16 / RFU, RWDD3 / Fold change vs veh, RWDD3 / RFU, BCAT1 / Fold change vs veh, BCAT1 / RFU, EDEM3 / Fold change vs veh, EDEM3 / RFU, TMEM33 / Fold change vs veh, TMEM33 / RFU, WDR75 / Fold change vs veh, WDR75 / RFU, AHCTF1 / Fold change vs veh, AHCTF1 / RFU, TFRC / Fold change vs veh, TFRC / RFU, ZDHHC17 / Fold change vs veh, ZDHHC17 / RFU, NOM1 / Fold change vs veh, NOM1 / RFU, ARL8B / Fold change vs veh, ARL8B / RFU, ZBTB11 / Fold change vs veh, ZBTB11 / RFU, TAMM41 / Fold change vs veh, TAMM41 / RFU, KIAA1704 /// LOC100996395 / Fold change vs veh, KIAA1704 /// LOC100996395 / RFU, ING1 / Fold change vs veh, ING1 / RFU, TRMT61B / Fold change vs veh, TRMT61B / RFU, FUBP3 / Fold change vs veh, FUBP3 / RFU, TP53 / Fold change vs veh, TP53 / RFU, TNKS2 / Fold change vs veh, TNKS2 / RFU, ZFP14 / Fold change vs veh, ZFP14 / RFU, ACTR2 / Fold change vs veh, ACTR2 / RFU, PPP3R1 / Fold change vs veh, PPP3R1 / RFU, PIK3R1 / Fold change vs veh, PIK3R1 / RFU, HNRNPA1 / Fold change vs veh, HNRNPA1 / RFU, RNF170 / Fold change vs veh, RNF170 / RFU, ZNF28 / Fold change vs veh, ZNF28 / RFU, RNGTT / Fold change vs veh, RNGTT / RFU, OGT / Fold change vs veh, OGT / RFU, BRD1 / Fold change vs veh, BRD1 / RFU, MARS / Fold change vs veh, MARS / RFU, ZNF655 / Fold change vs veh, ZNF655 / RFU, FAHD1 / Fold change vs veh, FAHD1 / RFU, BDP1 / Fold change vs veh, BDP1 / RFU, LRRCC1 / Fold change vs veh, LRRCC1 / RFU, ARID1A / Fold change vs veh, ARID1A / RFU, ZNF146 / Fold change vs veh, ZNF146 / RFU, ZNF330 / Fold change vs veh, ZNF330 / RFU, GPN3 / Fold change vs veh, GPN3 / RFU, C9orf123 / Fold change vs veh, C9orf123 / RFU, N4BP2L2 / Fold change vs veh, N4BP2L2 / RFU, ARFIP1 / Fold change vs veh, ARFIP1 / RFU, FAM179B / Fold change vs veh, FAM179B / RFU, BCL10 / Fold change vs veh, BCL10 / RFU, UHRF1BP1L / Fold change vs veh, UHRF1BP1L / RFU, BET1 / Fold change vs veh, BET1 / RFU, CNOT2 / Fold change vs veh, CNOT2 / RFU, ZNF268 / Fold change vs veh, ZNF268 / Fold change vs veh, ZNF507 / RFU, DGCR2 / Fold change vs veh, DGCR2 / RFU, WDSUB1 / Fold change vs veh, WDSUB1 / Fold change vs veh, HSP90B1 /// MIR3652 / RFU, ADSS / Fold change vs veh, ADSS / RFU, GK / Fold change vs veh, GK / RFU, ZNF148 / Fold change vs veh, ZNF148 / RFU, TAF9 / Fold change vs veh, TAF9 / RFU, SLC1A5 / Fold change vs veh, SLC1A5 / RFU, SLMO2 / Fold change vs veh, SLMO2 / RFU, ABCC4 / Fold change vs veh, ABCC4 / RFU, LOC101060439 /// RAP1B / Fold change vs veh, LOC101060439 /// RAP1B / RFU, RFX7 / Fold change vs veh, RFX7 / RFU, GTPBP10 / Fold change vs veh, GTPBP10 / RFU, CNEP1R1 / Fold change vs veh, CNEP1R1 / RFU, BIVM-ERCC5 /// ERCC5 / Fold change vs veh, BIVM-ERCC5 /// ERCC5 / RFU, ILF3 / Fold change vs veh, ILF3 / RFU 11762660_at / Fold change /veh 11762660_at / RFU VCAN (11757783_s_at) / Fold change /veh VCAN (11757783_s_at) / RFU DDX43 (11728927_at) / Fold change /veh DDX43 (11728927_at) / RFU KRT8 (11758188_x_at) / Fold change /veh KRT8 (11758188_x_at) / RFU NKD1 (11759106_at) / Fold change /veh NKD1 (11759106_at) / RFU SRD5A1 (11742802_a_at) / Fold change /veh SRD5A1 (11742802_a_at) / RFU TPSAB1 /// TPSB2 (11721975_s_at) / Fold change /veh TPSAB1 /// TPSB2 (11721975_s_at) / RFU GSTM3 (11746129_a_at) / Fold change /veh GSTM3 (11746129_a_at) / RFU IL23R (11737362_x_at) / Fold change /veh IL23R (11737362_x_at) / RFU TMEM51 (11727254_a_at) / Fold change /veh TMEM51 (11727254_a_at) / RFU PIWIL2 (11732686_x_at) / Fold change /veh PIWIL2 (11732686_x_at) / RFU ORM1 (11744905_x_at) / Fold change /veh ORM1 (11744905_x_at) / RFU CCDC152 (11743942_at) / Fold change /veh CCDC152 (11743942_at) / RFU ECM1 (11717891_a_at) / Fold change /veh ECM1 (11717891_a_at) / RFU IL23R (11748794_a_at) / Fold change /veh IL23R (11748794_a_at) / RFU TNFAIP8L3 (11732012_x_at) / Fold change /veh TNFAIP8L3 (11732012_x_at) / RFU MBOAT4 (11741988_at) / Fold change /veh MBOAT4 (11741988_at) / RFU 11764193_at / Fold change /veh 11764193_at / RFU TMEM53 (11763286_at) / Fold change /veh TMEM53 (11763286_at) / RFU MAGEB2 (11727129_at) / Fold change /veh MAGEB2 (11727129_at) / RFU TMEM200A (11744735_a_at) / Fold change /veh TMEM200A (11744735_a_at) / RFU CCDC152 (11751479_a_at) / Fold change /veh CCDC152 (11751479_a_at) / RFU FAM211A (11726209_a_at) / Fold change /veh FAM211A (11726209_a_at) / RFU RGS16 (11746705_a_at) / Fold change /veh RGS16 (11746705_a_at) / RFU VCAN (11755009_s_at) / Fold change /veh VCAN (11755009_s_at) / RFU RHOB (11743442_s_at) / Fold change /veh RHOB (11743442_s_at) / RFU RGS16 (11720943_a_at) / Fold change /veh RGS16 (11720943_a_at) / RFU RGS16 (11720944_at) / Fold change /veh RGS16 (11720944_at) / RFU, VPS4B / Fold change vs veh, VPS4B / RFU, CREB1 / Fold change vs veh, CREB1 / RFU, DNAJC13 / Fold change vs veh, DNAJC13 / RFU, GNAQ / Fold change vs veh, GNAQ / RFU, CDK5R1 / Fold change vs veh, CDK5R1 / RFU, ZRANB3 / Fold change vs veh, ZRANB3 / RFU, CUL4A / Fold change vs veh, CUL4A / RFU, CCNY / Fold change vs veh, CCNY / RFU, UFL1 / Fold change vs veh, UFL1 / RFU, COG3 / Fold change vs veh, COG3 / RFU, DIAPH2 / Fold change vs veh, DIAPH2 / RFU, SKA2 / Fold change vs veh, SKA2 / RFU, AFF3 / Fold change vs veh, AFF3 / RFU, LMF1 / Fold change vs veh, LMF1 / RFU, IPO11 / Fold change vs veh, IPO11 / RFU, DFFB / Fold change vs veh, DFFB / RFU, FOXP1 / Fold change vs veh, FOXP1 / RFU, CARD8 / Fold change vs veh, CARD8 / RFU, STRN3 / Fold change vs veh, STRN3 / RFU, ADK / Fold change vs veh, ADK / RFU, RASSF2 / Fold change vs veh, RASSF2 / RFU, WIPF1 / Fold change vs veh, WIPF1 / RFU, LARP1B / Fold change vs veh, LARP1B / RFU, RASA1 / Fold change vs veh, RASA1 / RFU, RB1 / Fold change vs veh, RB1 / RFU, PPFIA1 / Fold change vs veh, PPFIA1 / RFU, MAT2A / Fold change vs veh, MAT2A / RFU, CCT5 / Fold change vs veh, CCT5 / RFU, WDR92 / Fold change vs veh, WDR92 / RFU, CUX1 / Fold change vs veh, CUX1 / RFU, TTC7A / Fold change vs veh, TTC7A / RFU, TMEM135 / Fold change vs veh, TMEM135 / RFU, DEPTOR / Fold change vs veh, DEPTOR / RFU, CPM / Fold change vs veh, CPM / RFU, DNAJB6 / Fold change vs veh, DNAJB6 / RFU, CACNA2D3 / Fold change vs veh, CACNA2D3 / RFU, DTX4 / Fold change vs veh, DTX4 / RFU, TFCP2 / Fold change vs veh, TFCP2 / RFU, GMCL1 /// GMCL1P1 / Fold change vs veh, GMCL1 /// GMCL1P1 / RFU, AEBP2 / Fold change vs veh, AEBP2 / RFU, SNHG1 /// SNORD22 /// SNORD25 /// SNORD26 /// SNORD27 /// SNORD28 /// SNORD29 /// SNORD31 / Fold change vs veh, SNHG1 /// SNORD22 /// SNORD25 /// SNORD26 /// SNORD27 /// SNORD28 /// SNORD29 /// SNORD31 / Fold change (Aza/veh), C12orf56 (ProbeSet 11735607_a_at) / Fold change (ACY-1035/veh), C12orf56 (ProbeSet 11735607_a_at) / Fold change (Aza/veh), FGFR1OP (ProbeSet 11751329_s_at) / Fold change (ACY-1035/veh), FGFR1OP (ProbeSet 11751329_s_at) / Fold change (Aza/veh), VPS36 (ProbeSet 11739960_a_at) / Fold change (ACY-1035/veh), VPS36 (ProbeSet 11739960_a_at) / RFU SYPL1 (11715823_x_at) / Fold change /veh SYPL1 (11715823_x_at) / RFU IGFBP7 (11715501_s_at) / Fold change /veh IGFBP7 (11715501_s_at) / RFU REEP3 (11722064_at) / Fold change /veh REEP3 (11722064_at) / RFU IGLL1 (11728026_x_at) / Fold change /veh IGLL1 (11728026_x_at): dose or concentration left out as unconfirmed
Settings: ProbeSet 11759095_at; LIST D

Nc1ccc(-c2cccs2)cc1NC(=O)c1ccc2c(c1)cc(C1CC1)n2CCN1CCOCC1 [ACY-1035] was tested, and the “Fold change vs veh, GNAQ” value was 0.95.
